Assay results as given in patent publication EP4810476A1, “COCRYSTAL OF CURCUMIN AND L-CARNITINE, AND PREPARATION METHOD THEREFOR AND USE THEREOF” (Cocrystal Health Industry (Zhejiang) Co., Ltd., priority 2023, dated 2025).

Columns and labels:
[1] = Powder dissolution rate test; assay type: physicochemical; settings: 50 rpm, samples equivalent to 10 mg of curcumin
Protocol: Powder dissolution experiments were conducted in pH 2.0 and pH 4.5 buffer solutions (containing 0.5% Tween 80) at a temperature of 37°C and a rotation speed of 50 rpm. The commercially available curcumin crystals and the powder of the curcumin-L-carnitine cocrystal from Example 3 were sieved through a 100-mesh screen to eliminate the effect of particle size on dissolution. Samples equivalent to 10 mg of curcumin were placed into the sample vessels of the dissolution apparatus, stirred, and samples were taken at 3, 5, 10, 15, 20, 30, 45, 60, 90, and 120 minutes. Concentrations were determined using HPLC. In the pH 2.0 buffer solution, the dissolution of the cocrystal at 3 minutes was about 7 times that of curcumin itself. In the pH 4.5 buffer solution, the dissolution of the cocrystal at 3 minutes was about 8 times that of curcumin itself.

[2] = Bioavailability test (plasma pharmacokinetics after intragastric administration); parameters: species or system Male SD rats; settings: rat, in vivo, 200 mg/kg
Protocol: Male SD rats (weighing 200-300 g) kept under good feeding conditions were used for the experiment. A total of 12 rats were used, evenly divided into 2 groups of 6 rats each. Commercially available curcumin crystals and the cocrystal obtained in Example 3 were uniformly dispersed in soybean oil and administered intragastrically as a suspension. The dosage was 200 mg/kg based on curcumin content. Blood samples (1 mL per time point) were collected from the orbital venous plexus at 20 minutes, 40 minutes, 1 hour, 1.5 hours, 2.5 hours, 4 hours, 6 hours, and 8 hours after administration. Plasma was separated by centrifugation within 0.5 hours of blood collection at 10,000 rpm for 5 minutes. 100 µL of plasma was precisely transferred, added with 50 µL of enzyme buffer solution, incubated at 37°C for 60 min, then added with 0.45 mL of methanol (containing 0.2% acetic acid), vortexed for 10 min, centrifuged at 14000 rpm for 3 min, and the supernatant was collected for HPLC analysis. Table 4. Pharmacokinetic parameters for commercially available curcumin crystals and curcumin-L-carnitine cocrystal.

cocrystal of curcumin and L-carnitine [Curcumin-L-carnitine cocrystal]
dissolution of the cocrystal at 3 minutes relative to curcumin itself ([1]; pH 2.0 buffer solution containing 0.5% Tween 80, 37°C): about 7 times | dissolution of the cocrystal at 3 minutes relative to curcumin itself ([1]; pH 4.5 buffer solution containing 0.5% Tween 80, 37°C): about 8 times | maximum plasma concentration of curcumin relative to commercially available curcumin crystals [2]: 10.7 times | Cmax ([2]; po): 727.8 ng/mL | Tmax ([2]; po): 20 min | AUC0-8h ([2]; po, 8 h): 692.5 ng·h/mL
